In patent US6566338B1, “Caspase inhibitors for the treatment and prevention of chemotherapy and radiation therapy induced cell death” (Cytovia, Inc., priority 1999, dated 2003):

Legend:
[1] = system: oral mucositis induced by acute irradiation in hamsters; experiment: Radiation-induced oral mucositis in hamsters (acute radiation model, mucositis scoring); type: in vivo, Golden Syrian hamsters; conditions: for days with ulcerations (animal days with mucositis score of 3 or more) / daily mucositis scores, rank sum analysis vs vehicle control / reduction in ulceration vs vehicle control: day −2 to day 16; for days with ulcerations (animal days with mucositis score of 3 or more): vehicle control 56 days
Excerpt: A hamster model of chemotherapy-induced mucositis and, more recently, a model of radiation-induced mucositis has been developed (Sonis S. et al. Oral Surg. Oral. Med. Oral Pathol. 69:437-443 (1990) and Sonis S. et al. Cancer, 85:2103-13 (1999)). In the latter model, specific doses of acute radiation are targeted to the designated mucosa, with protection of other areas by a customized lead shield.
The objective of this study was to assess the effect of the topical and IP administration of (3R,S)-5-fluoro-3-[(2S)-3-methyl-1-oxo-2-(phenylcarbam-oyloxy)butyl]amino-4-oxo-pentanoic acid (a caspase inhibitor described in U.S. Application Ser. Nos. 60/151,077 and 60/158,373), in attenuating the development and progress of oral mucositis induced by acute irradiation in hamsters. Mucositis scores in hamsters receiving different doses of the compound were compared to those in hamsters receiving vehicle control, in order to detect statistically significant differences in the onset, duration or severity of the disorder.
Thirty-two (32) hamsters were randomly divided into four treatment groups with eight (8) animals per group. Each group was assigned a different treatment as follows:
Group 1: Vehicle control—topical vehicle control, tid (3 times daily), day −2 to day 16.
Group 2: Test compound at 20 mg/kg, IP once per day, day −2 to day 16.
Group 3: Test compound at 0.36 mg/ml (0.2 ml), topical, tid, day −2 to day 16.
Group 4: Test compound at 0.072 mg/ml (0.2 ml), topical, tid, day −2 to day 16.
viii) Starting on day 6 and continuing every second day thereafter (days 8, 10, 12, 14, 16, 18, 20, 22, 24, 26 & 28), each animal was photographed and evaluated for mucositis scoring.
dose of radiation (35 Gy/dose) was administered to all animals on Day 0. Radiation was generated with a 250 kilovolt potential (15-mA) source at a focal distance of 50 cm, hardened with a 0.35 mm Cu filtration system. Irradiation targeted the left buccal pouch mucosa at a rate of 121.5 cGy/minute. Prior to irradiation, animals were anesthetized with an intraperitoneal injection of sodium pentobarbital (80 mg/kg). The left buccal pouch was everted, fixed and isolated using a lead shield.
Topical dosing of animals was done three times per day. For topical treatments, a needleless tuberculin syringe, containing 0.2 ml of the test compound in 0.05M Tris (pH 8.0), was inserted into the left cheek pouch and the drug deposited into the pouch. Intraperitoneal injections of the compound were done once a day at a dose of 20 mg/kg and a drug concentration of 3-6 mg/ml in 0.05M Tris (pH 8.0). Dosing began on day −2 for all groups. In all groups treatment continued until day 16.
Mucositis Evaluation The mucositis score, weight change and survival were measured as outcomes in this study. For the evaluation of mucositis, the animals were anesthetized with inhalation anesthetics, and the left pouch everted. Mucositis was scored visually by comparison to a validated photographic scale, ranging from 0 for normal, to 5 for severe ulceration (clinical scoring). In descriptive terms, this scale is defined as follows: […]
A score of 1-2 is considered to represent a mild stage of the disease, whereas a score of 3-5 is considered to indicate moderate to severe mucositis. Following visual scoring, a photograph was taken of each animal's mucosa using a standardized technique. At the conclusion of the experiment, all films were developed and the photographs randomly numbered. At least two independent trained observers graded the photographs in blinded fashion using the above described scale (blinded scoring).

[2] = Weight change and survival in the hamster mucositis study; type: in vivo, Golden Syrian hamsters; conditions: at the doses used: 20 mg/kg IP; 0.36 and 0.072 mg/ml topical
Excerpt: i) Every day for the period of the study (day −2 to day 28), each animal was weighed and its survival recorded (to accommodate the schedules of the study site weights were taken every other day starting on day 17 and continuing to day 28).
Male Golden Syrian hamsters (Charles River Laboratories or Harlan Sprague Dawley), aged 5 to 6 weeks, with body weights of approximately 90 g at project commencement, were used. Animals were individually numbered using an ear punch and housed in small groups of 2 animals per cage. Animals were acclimatized for at least one week prior to project commencement. During this period, the animals were observed daily in order to reject animals that present poor condition.
Topical dosing of animals was done three times per day. For topical treatments, a needleless tuberculin syringe, containing 0.2 ml of the test compound in 0.05M Tris (pH 8.0), was inserted into the left cheek pouch and the drug deposited into the pouch. Intraperitoneal injections of the compound were done once a day at a dose of 20 mg/kg and a drug concentration of 3-6 mg/ml in 0.05M Tris (pH 8.0). […]
Mucositis Evaluation The mucositis score, weight change and survival were measured as outcomes in this study. […] Mucositis was scored visually by comparison to a validated photographic scale, ranging from 0 for normal, to 5 for severe ulceration (clinical scoring). […]

Jurkat T leukemia cells = experiment: Propidium iodide uptake assay of apoptosis induced by chemotherapeutic agents or UV irradiation in Jurkat T cells; type: cell-based; conditions: 18 h
Protocol: Jurkat T leukemia cells were grown in RPMI 1640 media (Life Technologies, Inc.)+10% FCS (Sigma Chemical Company) in a 5% CO2 -95% humidity incubator at 37° C., and maintained at a cell density between 4 and 8×10^5 cells/ml. 1×10^6 cells were treated with Doxorubicin (1 μM) or Paclitaxel (20 μM) or UV irradiation (40 J/m^2) with or without the caspase inhibitor Z-VD-fmk (10 μM) and incubated at 37° C. for 18 h. As a control, cells were also incubated with DMSO. At 18 h cells were observed under phase contrast microscopy to visualize any morphological changes induced by the apoptotic stimuli. Cells were assessed for viability by a propidium iodide uptake assay. Briefly, 20 μl of propidium solution containing 100 μg/ml of propidium iodide was added to 200 μl of cells and transferred to 12×75mm polystyrene tubes and analyzed on a flow cytometer. All flow cytometry analyses were performed on FACScalibur (Becton Dickinson) using CellQuest analysis software.
FIGS. 1A-C depict photographs of Jurkat cells: FIG. 1A, DMSO treated control cells; FIG. 1B, cells treated with doxorubicin (1 μM); FIG. 1C, cells treated with doxorubicin (1 μM) and Z-VD-fmk (10 μM). FIG. 1D depicts a bar graph showing percentage of cell apoptosis as measured by a propidium iodide uptake assay: a, DMSO treated control cells; b, cells treated with doxorubicin; c, cells treated with doxorubicin and Z-VD-fmk.
FIGS. 2A-C depict photographs of Jurkat cells: FIG. 2A, DMSO treated control cells; FIG. 2B, cells treated with paclitaxel (20 μM); FIG. 2C, cells treated with paclitaxel (20 μM) and Z-VD-fink (10 μM). FIG. 2D depicts a bar graph showing percentage of cell apoptosis as measured by a propidium iodide uptake assay: a, DMSO treated control cells; b, cells treated with paclitaxel; c, cells treated with paclitaxel and Z-VD-fink.
FIGS. 3A-C depict photographs of Jurkat cells: FIG. 3A, DMSO treated control cells; FIG. 3B, cells treated with UV irradiation (40 J/m^2); FIG. 3C, cells treated with UV irradiation (40 J/m2) and Z-VD-fmk (10 μM). […]

SMILES	days with ulcerations (animal days with mucositis score of 3 or more) ([1]; 0.072 mg/ml (0.2 ml) topical tid)	daily mucositis scores, rank sum analysis vs vehicle control ([1]; 0.072 mg/ml topical tid)	reduction in ulceration vs vehicle control ([1]; 0.072 mg/ml topical tid, p=0.061, not significant)	days with ulcerations (animal days with mucositis score of 3 or more) ([1]; 0.36 mg/ml (0.2 ml) topical tid)	daily mucositis scores, rank sum analysis vs vehicle control ([1]; 0.36 mg/ml topical tid)	reduction in ulceration vs vehicle control ([1]; 0.36 mg/ml topical tid, p<0.001)	daily mucositis scores, rank sum analysis vs vehicle control ([1]; 20 mg/kg IP once per day)	reduction in ulceration vs vehicle control ([1]; 20 mg/kg IP once per day, p=0.068, not significant)	days with ulcerations (animal days with mucositis score of 3 or more) ([1]; 20 mg/kg IP once per day)	onset of ulceration ([1]; day 0 to day 16, all treatment groups)	systemic toxicity (mortality due to the treatment) [2]	doxorubicin induced cell death in Jurkat cells (Jurkat T leukemia cells; Doxorubicin 1 μM, Z-VD-fmk 10 μM, FIGS. 1A-D)	paclitaxel induced cell death in Jurkat cells (Jurkat T leukemia cells; Paclitaxel 20 μM, Z-VD-fmk 10 μM, FIGS. 2A-D)	UV irradiation induced cell death in Jurkat cells (Jurkat T leukemia cells; UV irradiation 40 J/m^2, Z-VD-fmk 10 μM, FIGS. 3A-D)
CC(C)[C@H](OC(=O)Nc1ccccc1)C(=O)NC(CC(=O)O)C(=O)CF (stereo partly drawn) [test compound, (3R,S)-5-Fluoro-3-[(2S)-3-methyl-1-oxo-2-(phenylcarbamoyloxy)butyl]amino-4-oxo-pentanoic Acid]	42 days	Significance was achieved only on day 18	25%	27 days	significant reduction of mucositis on days 18, 20, 22 & 26	51.8%	significant reduction in mucositis severity on days 20 and 22	24.8%	39 days	no apparent reduction in the onset of ulceration	no systemic toxicity			
CC(C)[C@H](NC(=O)OCc1ccccc1)C(=O)NC(CC(=O)O)C(=O)CF (some centres unmarked) [Z-VD-fmk]												blocks doxorubicin induced cell death	blocks paclitaxel induced cell death	blocks UV irradiation induced cell death
